PMC8379256, “A xanthene derivative, DS20060511, attenuates glucose intolerance by inducing skeletal muscle-specific GLUT4 translocation in mice” (Communications Biology, 2021)
Values joined by “and” are separate entries in the source; they are usually repeats but may differ in a detail not shown here. Equal entries are not always repeated.

Experiments:
L6-GLUT4myc myotubes = experiment: In vitro cellular 2-DG uptake in L6-GLUT4myc myotubes; type: cell-based, rat; settings: for Ratio: 2-DG uptake normalized to vehicle; for A - background / A: dpm: 2-DG uptake
Protocol: (§1) The L6-GLUT4myc rat myoblast cell line was obtained from Dr. Amira Klip and Dr. Philip Bilan, through a license granted by The Hospital for Sick Children, 555 University Avenue, Toronto, Ontario, Canada M5G 1 × 8; or purchased from Kerafast, Boston, MA (ESK202)[43]. The 3T3-L1-GLUT4myc fibroblast cell line was provided by Dr. Tomoyuki Yuasa, Tokushima University[44]. L6-GLUT4myc myoblasts were grown in MEMα (32571036, Thermo Fisher Scientific, Waltham, MA) supplemented with 10% FBS and 1% antibiotics, and then induced to differentiate into myotubes in MEMα supplemented with 2% FBS and 1% antibiotics for 5–8 days. 3T3-L1-GLUT4myc fibroblasts were induced to differentiate into adipocytes as described previously,[45] with minor modifications. Briefly, cells were grown to confluence in growth medium: DMEM (10569010, Thermo Fisher Scientific) supplemented with 10% FBS and 1% antibiotics, and then induced to differentiate into adipocytes in growth medium supplemented with 1 μM dexamethasone, 2 μM rosiglitazone, 0.5 mM isobutylmethylxanthine, and 10 μg mL^−1 insulin for 2 days. The adipocytes were then cultured in growth medium supplemented with 10 μg mL^−1 insulin for a few days before being used for the experiments.
L6-GLUT4myc myotubes and 3T3-L1-GLUT4myc adipocytes were incubated in the wells of a 24-well plate containing serum-free medium for 3 h at 37 °C and then incubated in glucose-free medium for 30 min at 37 °C. The cells were treated with the indicated concentrations of DS20060511 or insulin for 30 min at 37 °C, followed by the addition of 1 mM 2-deoxy-D-glucose (2-DG) and 0.3 μCi mL^−1 [^3H]-2-DG for 10 min. 2-DG uptake was measured with a liquid scintillation counter (Tri-Carb 2810TR, PerkinElmer, Waltham, MA) and normalized to the level in the vehicle-treated group.

[1] = system: 3T3-L1-GLUT4myc adipocytes; experiment: GLUT4 translocation: cell surface GLUT4myc by anti-Myc antibody assay in 3T3-L1-GLUT4myc adipocytes; type: cell-based; settings: for Ratio: GLUT4 translocation normalized to vehicle; for A - background / A: Abs. (450 nm): GLUT4 translocation; for GLUT4 translocation (in words): differentiated 3T3-L1-GLUT4myc adipocytes, Fig. 1c
Protocol: as §1
Cell surface GLUT4 levels in the L6-GLUT4myc myoblasts and myotubes were determined by antibody binding assay as described previously[43],[44], with minor modifications. Briefly, cells in a 96- or 24-well plate were starved in serum-free MEMα (0.1% BSA and 1% antibiotics) for 3 h and then treated with the indicated concentrations of DS20060511 and/or insulin for 30 min at 37 °C. After fixation with 4% paraformaldehyde, the cells were incubated with 1% glycine in PBS at 4 °C for 10 min, and blocked with 10% normal goat serum and 3% BSA in PBS at 4 °C for 30 min. The cells were then incubated with anti-c-Myc antibody (sc-40, 1:500) diluted with blocking buffer at 4 °C for 1 h, washed with cold PBS(+), incubated with HRP-conjugated anti-mouse IgG diluted with blocking buffer at 4 °C for 30 min, and then washed again. SuperSignal ELISA Pico Chemiluminescent Substrate (Thermo Fisher Scientific) was added and the luminescent signal was measured. To investigate GLUT4 translocation in the 3T3-L1-GLUT4myc adipocytes, the cells were prepared in a 24-well plate, and anti-c-Myc antibody (sc-789, 1:1000), HRP-conjugated anti-rabbit IgG and SIGMAFAST OPD regent (Sigma–Aldrich) were added for optical detection of the cell surface GLUT4myc levels. The GLUT4 translocation activity was normalized to that in the vehicle-treated group.

[2] = system: isolated skeletal muscles; experiment: 2-DG uptake with 100 nM insulin in isolated muscles from C57BL/6 mice; parameters: species or system mouse; settings: for 2DOG Trn / IC 2DOG / Raio (2-DG uptake relative to untreated control): isolated muscles, individual muscles #1-3; for 2DOG Trn / IC 2DOG: 2DG 1 mM, incubation 10 min
Protocol: Arrowheads indicate the characteristic ruffled structure of the polymerized actin and actin-associated surface GLUT4. d GLUT4 translocation activity of 30 μM DS20060511 or 100 nM insulin in the presence of the actin polymerization inhibitor, Latrunculin B, at the indicated concentrations. Values shown are means ± SEM, n = 3. **P < 0.01 vs. 0 nM Latrunculin B by one-way ANOVA followed by Dunnett’s test. e Concentration-dependent insulin-stimulated GLUT4 translocation in L6-GLUT4myc myotubes with or without 30 μM DS20060511 (n = 3). f Concentration-dependent DS20060511-stimulated 2-DG uptake with 100 nM insulin in isolated muscles from C57BL/6 mice (n = 3). Values shown are means ± SEM. ***P < 0.001 by one-way ANOVA followed by Tukey’s test. g Blood glucose levels during ITT in STZ-treated C57BL/6 mice (n = 6–7). Vehicle or indicated dose of DS20060511 was given orally at the same time as 0.1 U kg^−1 insulin injection intraperitoneally. Values shown are means ± SEM. *P < 0.05 vs. vehicle by one-way ANOVA followed by Dunnett’s test. c Scale bar in all panels, 5 μm. Uncropped blots for a and b can be found in Supplementary Fig. 6.
The soleus or EDL muscle was removed from anesthetized mice (isoflurane anesthesia) that had been denied access to food overnight, and incubated with oxygenated (95% O2/5% CO2) Krebs-Henseleit Bicarbonate (KHB) buffer (118.1 mM NaCl, 4.7 mM KCl, 1.1 mM KH2PO4, 1.2 mM MgSO4, 2.5 mM CaCl2, and 25 mM NaHCO3, pH7.4) in the presence of 11.1 mM glucose at 37 °C. The muscle specimens were then treated with the indicated concentrations of the compounds in KHB buffer containing 11.1 mM glucose and 8 mM mannitol for 10 min at 37 °C. Thereafter, the muscles were rinsed with KHB buffer containing 8 mM mannitol and the compounds for 5 min at 37 °C. Lastly, the muscles were treated with the compounds in KHB buffer containing 1 mM 2-DG (with 0.3 μCi mL^−1 [^3H]-2-DG) and 8 mM mannitol (with 0.03 μCi mL^−1 [^14C]-mannitol) for 10 min at 37 °C. After the muscle specimens were washed, they were lysed with 1 N NaOH and neutralized with 1 N HCl. The ^14C- and ^3H-specific activities were counted with a liquid scintillation counter. The specific uptake of 2-DG was calculated by subtracting the nonspecific uptake of mannitol from the total 2-DG uptake. To investigate the effects of muscle contraction, muscle contraction was induced by electrical stimulation with 5 Hz (1 ms pulse duration, 100 V) for 10 min (SEN-5201, Nihon Koden, Tokyo, Japan).

[3] = insulin 100 nM alone (DS20060511 0 μM)
[4] = DS20060511 1 μM + insulin 100 nM
[5] = DS20060511 10 μM + insulin 100 nM

Insulin: Insulin (Humulin, Eli Lilly) in the in vivo experiments; Insulin solution human (I9278, Sigma–Aldrich) in the in vitro experiments
Ratio (L6-GLUT4myc myotubes; Insulin 1 nM): 1.26 and 1.31 and 1.36 | Ratio (L6-GLUT4myc myotubes; Insulin 10 nM): 1.62 and 1.58 and 1.67 | Ratio (L6-GLUT4myc myotubes; Insulin 100 nM): 1.81 and 1.94 and 2.02 | A - background (L6-GLUT4myc myotubes; Insulin 1 nM): 1594 dpm and 1651 dpm and 1530 dpm | A: dpm (L6-GLUT4myc myotubes; Insulin 1 nM): 1699 dpm and 1756 dpm and 1635 dpm | A - background (L6-GLUT4myc myotubes; Insulin 10 nM): 1918 dpm and 2031 dpm and 1966 dpm | A: dpm (L6-GLUT4myc myotubes; Insulin 10 nM): 2023 dpm and 2136 dpm and 2071 dpm | A - background (L6-GLUT4myc myotubes; Insulin 100 nM): 2363 dpm and 2459 dpm and 2203 dpm | A: dpm (L6-GLUT4myc myotubes; Insulin 100 nM): 2468 dpm and 2564 dpm and 2308 dpm | Ratio ([1]; Insulin 1 nM): 1.07 and 1.09 and 1.12 | Ratio ([1]; Insulin 10 nM): 1.31 and 1.33 and 1.41 | Ratio ([1]; Insulin 100 nM): 1.41 and 1.46 and 1.56 | A - background ([1]; Insulin 1 nM): 0.1315 and 0.1345 and 0.1295 | A: Abs. (450 nm) ([1]; Insulin 1 nM): 0.215 and 0.218 and 0.213 | A - background ([1]; Insulin 10 nM): 0.1605 and 0.1705 and 0.1575 | A: Abs. (450 nm) ([1]; Insulin 10 nM): 0.244 and 0.254 and 0.241 | A - background ([1]; Insulin 100 nM): 0.1755 and 0.1885 and 0.1705 | A: Abs. (450 nm) ([1]; Insulin 100 nM): 0.259 and 0.272 and 0.254 | GLUT4 translocation (in words) [1]: increased GLUT4 translocation | 2DOG Trn [2, 3]: 573 nmol/ml and 57.3 µM/min and 622 nmol/ml and 62.2 µM/min and 629 nmol/ml and 62.9 µM/min | IC 2DOG [2, 3]: 376 nmol/g and 331 nmol/g and 410 nmol/g | Raio (2-DG uptake relative to untreated control) [2, 3]: 1.65 and 1.79 and 1.82

COc1ccc2c(C)c(C(=O)O)ccc2c1C1C2=C(CC(C)(C)CC2=O)OC2=C1C(=O)CC(C)(C)C2 [DS20060511]
Ratio (L6-GLUT4myc myotubes; DS20060511 0.1 μM): 1.12 and 1.13 and 1.11 | Ratio (L6-GLUT4myc myotubes; DS20060511 1 μM): 1.53 and 1.44 and 1.45 | Ratio (L6-GLUT4myc myotubes; DS20060511 10 μM): 1.59 and 1.82 and 1.79 | A - background (L6-GLUT4myc myotubes; DS20060511 0.1 μM): 1376 dpm and 1354 dpm and 1361 dpm | A: dpm (L6-GLUT4myc myotubes; DS20060511 0.1 μM): 1481 dpm and 1459 dpm and 1466 dpm | A - background (L6-GLUT4myc myotubes; DS20060511 1 μM): 1752 dpm and 1767 dpm and 1863 dpm | A: dpm (L6-GLUT4myc myotubes; DS20060511 1 μM): 1857 dpm and 1872 dpm and 1968 dpm | A - background (L6-GLUT4myc myotubes; DS20060511 10 μM): 2208 dpm and 2181 dpm and 1933 dpm | A: dpm (L6-GLUT4myc myotubes; DS20060511 10 μM): 2313 dpm and 2286 dpm and 2038 dpm | 2-DG uptake (in words) (L6-GLUT4myc myotubes; L6-GLUT4myc myotubes, Fig. 1d): significantly increased 2-DG uptake in a concentration-dependent manner | Ratio ([1]; DS20060511 0.1 μM): 0.99 and 1.02 and 1.06 | Ratio ([1]; DS20060511 1 μM): 0.93 and 1.02 and 0.98 | Ratio ([1]; DS20060511 10 μM): 0.96 and 1.08 and 1.04 | A - background ([1]; DS20060511 0.1 μM): 0.1225 and 0.1275 and 0.1195 | A: Abs. (450 nm) ([1]; DS20060511 0.1 μM): 0.206 and 0.211 and 0.203 | A - background ([1]; DS20060511 1 μM): 0.1225 and 0.1175 and 0.1115 | A: Abs. (450 nm) ([1]; DS20060511 1 μM): 0.206 and 0.201 and 0.195 | A - background ([1]; DS20060511 10 μM): 0.1305 and 0.1255 and 0.1155 | A: Abs. (450 nm) ([1]; DS20060511 10 μM): 0.214 and 0.209 and 0.199 | GLUT4 translocation (in words) [1]: almost no effect on GLUT4 translocation | 2-DG uptake induced by insulin, concomitant DS20060511 ([2]; 100 nM insulin, isolated skeletal muscles, Fig. 4f): additively increased | 2DOG Trn [2, 4]: 935 nmol/ml and 93.5 µM/min and 1062 nmol/ml and 106.2 µM/min and 1054 nmol/ml and 105.4 µM/min | IC 2DOG [2, 4]: 559 nmol/g and 682 nmol/g and 640 nmol/g | Raio (2-DG uptake relative to untreated control) [2, 4]: 2.70 and 3.07 and 3.04 | 2DOG Trn [2, 5]: 1281 nmol/ml and 128.1 µM/min and 1209 nmol/ml and 120.9 µM/min and 1137 nmol/ml and 113.7 µM/min | IC 2DOG [2, 5]: 656 nmol/g and 556 nmol/g and 565 nmol/g
